“And” between values parts separate entries of the source, which are not always exact repeats. Identical values can stand only once. Like-named read-outs stand apart in the source and are kept apart here.
What was measured:
[1] = test system: relapsed/refractory AML and ALL; assay: phase II study in acute leukemia: response, blast/WBC reduction, time to progression; assay type: in vivo, human; details: for median WBC count: pretreatment 2,650
Method: Each cycle lasted 21 days. Patient could continue treatment on the study in the absence of disease progression or unacceptable toxicity. The next cycle of therapy could start if non-hematologic toxicity from previous cycle recovered to ≤grade 1, and dose delay of up to 3 weeks was allowed for recovery. Permanent dose reduction was required for any ≥grade 3 clinically significant non-hematologic adverse event (70 mg/m^2 → 50 mg/m^2; 50 mg/m^2 → 40 mg/m^2; 40 mg/m^2 → 30 mg/m^2; 30 mg/m^2 → discontinue). To allow for continued treatment of subjects whose cytopenias were due to leukemia and not due to drug toxicity, subsequent cycles of treatment were allowed if absolute neutrophil count (ANC) ≥0.5 × 10^9/L or for ANC <0.5 × 10^9/L but no more than 20 % below the baseline pretreatment levels and platelet count ≥20 × 10^9/L or platelets <20 × 10^9/L but no more than 20 % below the baseline pretreatment levels. Anti-emetic prophylaxis including serotonin-receptor antagonist, metoclopramide, or prochloperazine with or without dexamethasone was allowed. […] Dexamethasone 20 mg IV was given early if symptoms of cytokine release syndrome were observed.
Response was assessed by bone marrow (BM) examination on day 21 of cycles 1 and 2, and every 6 weeks thereafter until complete remission or progressive disease (PD). Response was determined according to the revised recommendations of the International Working Group (IWG) for AML [33]. Toxicities were graded according to the National Cancer Institute Common Terminology Criteria for Adverse Events (NCI CTCAE), version 3.0 (http://ctep.cancer.gov/protocolDevelopment/electronic_applications/docs/ctcaev3.pdf). Hematologic and chemistry profiles were monitored on day 1 and 2 of each cycle or until resolution of acute toxicities and subsequently at least once a week or more frequently depending on the individual patient’s needs.
The primary efficacy endpoint of the study was the ORR, including complete remission (CR), CR with incomplete count recovery (CRi), and partial remission.

[2] = test system: Mcl-1, phospho-Rb (Ser807/811), PARP cleavage; assay: pharmacodynamic Western blot on patients' PBMC; assay type: in vivo, human
Method: For Western blot analysis, PB mononuclear cells (PBMC) were isolated by gradient centrifugation using lymphocyte separation medium (LSM) (Mediatech Inc., Manassas, VA, USA), and protein extracts were prepared and analyzed for the expression of Mcl-1, phospho-Rb (Ser807/811), and PARP cleavage as described below.
For Western blot analysis, leukemia cell pellets (primary leukemia cells, HL-60, MOLT-4, K562) were washed with PBS and lysed with RIPA buffer (Sigma-Aldrich, St. Louis, MO, USA) supplemented with Complete Mini™ protease inhibitor and PHOStop™ phosphatase inhibitors (Roche). Equal amounts of proteins up to 25 μg were separated on 4–12 % NuPAGE precast gels in 1X MOPS or 1X MES buffer (Invitrogen) and electro-blotted to PVDF membranes (Millipore, Billerica, MA, USA). The membranes were blocked with 5 % dry milk in 1X TBS/0.1 % Tween 20 for at least 1 h at room temperature. Blots were incubated with primary antibody (Ab) overnight at 4 °C, washed 3 times in TBS/0.1 % Tween 20, and then incubated with secondary Ab for 1 h at room temperature. Blots were washed three times, and the signal was detected with Amersham™ ECL™ detection systems (GE Healthcare, Pittsburgh, PA, USA). The following primary Abs were used: mouse anti-PARP (BD Pharmingen), rabbit anti-phospho-Rb (Ser807/811) and rabbit anti-Mcl-1 (both from Santa Cruz, Santa Cruz, CA, USA), rabbit anti-caspase 9 p35 and anti-caspase 3 (both from Cell Signaling, Danvers, MA, USA), and mouse anti-β-actin (Sigma-Aldrich). […] Secondary horseradish peroxidase-conjugated anti-mouse or anti-rabbit Abs were from Cell Signaling (Beverly, MA, USA). The Western blot signals were measured by densitometry using ImageJ 1.45I software (NIH, Bethesda, USA).

[3] = test system: HL-60, MOLT-4, K562; details: 24 or 72 vs. 2 h
Method: Primary leukemia cells for in vitro studies were isolated from BM or PB obtained from AML or ALL patients enrolled on a separate University of Maryland, Baltimore, IRB-approved protocol for tissue collection and not treated on this clinical study. The cells were isolated by gradient centrifugation using LSM (Mediatech) according to the manufacturer’s protocol. Cells were used either fresh or after viable freezing (FBS/10 % DMSO). Primary leukemia cells were cultured in RPMI 1640 (Invitrogen, Grand Island, NY, USA) supplemented with 15 % heat-inactivated FBS (HyClone Laboratories Inc., Red Bank, NJ, USA) and 200 mM L-Glutamine (Invitrogen). Leukemia cell lines HL-60 (AML), MOLT-4 (T cell ALL), and K562 (chronic myelogenous leukemia [CML] in erythroid blast transformation) were purchased from American Type Culture Collection (ATCC, Manassas, VA, USA) and cultured in RPMI 1640 (Invitrogen) supplemented with 10 % heat-inactivated FBS (HyClone Laboratories Inc.) and 200 mM L-Glutamine (Invitrogen).

[4] = test system: PARP, Mcl-1, p-Rb in primary leukemia samples; assay: Western blot, primary leukemia cells in vitro; assay type: cell-based, human; details: 6-h exposure, ≥20 nM; more prominent at 200 nM and 24 h
Method: (§1) Primary leukemia cells for in vitro studies were isolated from BM or PB obtained from AML or ALL patients enrolled on a separate University of Maryland, Baltimore, IRB-approved protocol for tissue collection and not treated on this clinical study. The cells were isolated by gradient centrifugation using LSM (Mediatech) according to the manufacturer’s protocol. Cells were used either fresh or after viable freezing (FBS/10 % DMSO). Primary leukemia cells were cultured in RPMI 1640 (Invitrogen, Grand Island, NY, USA) supplemented with 15 % heat-inactivated FBS (HyClone Laboratories Inc., Red Bank, NJ, USA) and 200 mM L-Glutamine (Invitrogen). […]
(§2) For Western blot analysis, leukemia cell pellets (primary leukemia cells, HL-60, MOLT-4, K562) were washed with PBS and lysed with RIPA buffer (Sigma-Aldrich, St. Louis, MO, USA) supplemented with Complete Mini™ protease inhibitor and PHOStop™ phosphatase inhibitors (Roche). […] Blots were washed three times, and the signal was detected with Amersham™ ECL™ detection systems (GE Healthcare, Pittsburgh, PA, USA). […] The Western blot signals were measured by densitometry using ImageJ 1.45I software (NIH, Bethesda, USA).

[5] = test system: Mcl-1, PARP cleavage in HL-60, MOLT-4, K562; assay: Western blot, leukemia cell lines in vitro; assay type: cell-based, human; details: most prominent with 6 and 24 h exposure
Method: as §1, §2

[6] = cited from earlier work
[7] = 13 patients with circulating blasts, within 1–8 days of first dose
[8] = AML patients, all treated subjects
[9] = patients with circulating blasts

## CCc1cnn2c(NCc3ccc[n+]([O-])c3)cc(N3CCCC[C@H]3CCO)nc12 [Dinaciclib]
[1]; 50 mg/m^2 2-h infusion every 21 days, 20 patients
  objective responses by IWG criteria: No objective responses
[1]; 8 of 13 patients with follow-up BM evaluations
  average reduction in BM blasts: 36%
[1]; [7]
  patients with >50 % decrease in absolute blast count (ABC): 77%
  patients with >80 % decrease in absolute blast count (ABC): 46%
[1]; ALL patients
  TTP: 1 to 8.14 weeks
[1]; AML patients included in the initial randomization
  median TTP: 5.14 weeks
[1]; [8]
  Beta Posterior Mean (Bayes estimate of the response rate): 0.071
  Difference in observed response rate (SCH727965 - Mylotarg): -12.500%
  Number of Non-responders: 12
  Number of Responders: 0
  Posterior Probability (This treatment is better): 0.200
[1]; AML patients, all treated subjects, frequentist approach
  Observed Response Rate (%): 0.000%
[1]; all treated AML patients
  Median time to progression, Estimate: 5.14 weeks
  Number of Events (progression): 10
[1]; day 2
  median WBC count: 1,045 × 10^6/L
[1]; day 8
  median WBC count: 1,350 × 10^6/L
[1]; in vivo
  median duration of the WBC nadir: 5 days
  patients with temporary decrease in PB and/or marrow blasts: 60%
[1]; [9]
  duration of ABC nadir: 7 days
  median time to ABC nadir: 3 days
[1]; patients with circulating blasts, pre-treatment 1,130
  median ABC nadir: 2e+08 L⁻¹
[1]; two AML patients who crossed over from GO, individual values
  TTP: 7.86 weeks and 9.14 weeks
[2]; PBMC 4 h after end of infusion, 4 specimens
  down-regulation of Mcl-1: 34–76%
[2]; PBMC 4 h post-treatment
  PARP cleavage: Induction of PARP cleavage was also observed at 4 h
[2]; PBMC 4 h post-treatment, 1 AML and 3 ALL patients
  Mcl-1 expression: decrease in Mcl-1 was seen in all specimens
[2]; PBMC 24 h post-treatment
  Mcl-1 expression: returned to baseline by 24 h
[2]; PBMC, 2 patients had almost undetectable baseline p-Rb
  p-Rb (Ser807/811): Decline in p-Rb was observed in 1 patient
[3]
  growth inhibitory and apoptosis-inducing effect of prolonged exposure: more potent growth inhibitory and apoptosis-inducing effect
[4]
  Mcl-1 expression and PARP cleavage: down-regulation of Mcl-1 and induction of PARP cleavage were observed in all 5 primary leukemia samples
[5]
  Mcl-1 expression and PARP cleavage: down-regulates the expression of the anti-apoptotic protein Mcl-1 independently of caspases and induces PARP cleavage
[6]; 2-h infusion on days 1, 8, 15 every 28 days
  recommended phase II dose (RPTD): 12 mg/m^2
[6]; 2-h infusion once every 21 days
  recommended phase II dose (RPTD): 50 mg/m^2
[6]; 8-h continuous infusion, 7.4–50 mg/m^2, preliminary
  average dinaciclib concentration: 200–1,031 nM
[6]; 24-h continuous infusion, 7.4–14.6 mg/m^2, preliminary
  average dinaciclib concentration: 82.3 to 184 nM

From paper PMC3784060 (Cancer Chemotherapy and Pharmacology, 2013)
